This is an account of results in patent US11072596B2, “Poly(ADP-ribose) polymerase inhibitor, preparation method and use” (SELECTION BIOSCIENCE LLC, priority 2017, dated 2021).

A value given as a limit tells only on which side of the number the result lay.

The term IC50 denotes the concentration that inhibits the measured activity by half. Usually inhibition stands for the share of the control response that was lost under treatment. Higher therefore signals a response far below the control.

A short description of data set [1]: Liver microsomal stability in vitro, rat. The note with it: pH 7.4; rat liver microsomes 0.5 mg protein/mL, 1 μM test compound, 37° C.; read-out: Rat T1/2. The class given is in vitro ADME. The protocol: (§1) Evaluation of in vitro liver microsomal stability of the compound of the present disclosure was tested by the following method:
(§2) Buffer: 100 mM potassium phosphate buffer, pH 7.4; […] MgCl2.
(§3) Liver microsomes: human liver microsomes, Corning Cat No. 452117; Rat liver microsomes, Xenotech Cat No. R1000; Mouse liver microsomes, Xenotech Cat No. M1000; Dog liver microsomes, Xenotech Cat No. D1000; Liver microsomes of cynomolgus monkey, Corning Cat No. 452413, the final concentration was 0.5 mg protein/mL.
(§4) 1. Intermediate solution: 5 μL of compound or control in stock solution (10 mM) was diluted with 495 μL of methanol (concentration: 100 μM, 99% MeOH).
(§5) 2. Operating solution: the intermediate solution was diluted […] with 450 μL 100 mM potassium phosphate buffer (concentration: 10 μM, 9.9% MeOH).
(§6) 1. 10 μL of compound or control solution per well was added to all plates (T0, T5, T10, T20, T30, T60, NCF60) except matrix blank.
(§7) 2. Microsome solution was distributed to 96-well plates according to platemap for standby, 680 μL per well, and the mixture of microsome solution and the compound was incubated at 37° C. for about 10 minutes.
4. […]
(§8) 10. Data analysis: The peak area of the corresponding compound and internal standard was detected by LC-MS/MS, and the T1/2 of the compound was calculated by the following formula: […]
Background: Liver microsomes are vesicles of endoplasmic reticulum, rich in cytochrome P450 enzymes.

For a further data set, the target named is T1, CYP1A2 (Homo sapiens, UniProt P05177).
T1 construct: from tissue; host or cells: human liver microsomes (HLM)
T1 sequence (P05177 1-516): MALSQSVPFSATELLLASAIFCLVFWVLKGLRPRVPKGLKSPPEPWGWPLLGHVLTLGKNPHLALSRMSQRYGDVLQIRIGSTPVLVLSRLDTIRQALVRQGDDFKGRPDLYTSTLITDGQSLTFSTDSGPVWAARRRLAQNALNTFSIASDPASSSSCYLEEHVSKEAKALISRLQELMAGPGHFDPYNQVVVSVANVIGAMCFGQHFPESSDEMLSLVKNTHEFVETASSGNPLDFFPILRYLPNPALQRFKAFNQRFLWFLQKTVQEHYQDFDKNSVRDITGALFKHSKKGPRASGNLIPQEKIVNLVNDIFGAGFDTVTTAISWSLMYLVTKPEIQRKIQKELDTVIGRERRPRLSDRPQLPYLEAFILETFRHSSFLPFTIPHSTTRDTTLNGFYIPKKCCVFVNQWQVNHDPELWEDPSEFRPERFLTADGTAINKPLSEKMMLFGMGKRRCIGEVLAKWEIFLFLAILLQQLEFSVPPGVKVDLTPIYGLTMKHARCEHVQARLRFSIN
The data set is described as follows: Inhibition of human liver microsomal CYP450 enzymes, CYP1A2. The class given is in vitro ADME. The note with it: human liver microsomes, substrate Phenacetin 30 μM; Reference = α-naphthoflavone; read-out: IC50 1A2. The protocol: The inhibitory effects of the compound of the present disclosure on the CYP450 enzymes of six human subtypes were determined by the following experimental method:
Reference compounds of each subtype: CYP1A2: α-naphthoflavone; CYP2C9: sulfaphenazole; CYP2C19: omeprazole; CYP3A4: ketoconazole; CYP2D6: quinidine.
Substrate concentration: CYP1A2: Phenacetin at 30 μM; CYP2C9: Diclofenac at 10 μM; CYP2C19: S-Mephenytoin at 35 μM; CYP3A4: Midazolam at 5 μM and Testosterone at 80 μM; CYP2D6: Bufuralol at 10 μM.
6. 0.2 mg/mL of HLM was added to the test wells, 400 μL per well, and then the gradient diluted 400× test compound was added to the corresponding wells.
7. 0.2 mg/mL of HLM was added to the test wells, 200 μL per well, and then the gradient-diluted reference inhibitor was added to the corresponding wells. Steps 6 and 7 needed to be performed on ice.
8.1. 30 μL of test compound and reference compound were mixed in 0.2 mg/mL of HLM solution (see steps 6 and 7).
8.2. 15 μL of 4× substrate solution (see step 4) was added.
10. Preheated 8 mM of NADPH solution was added to the 96-well test plate (see step 3) to initiate the reaction, 15 μL per well.
11. The test plate was incubated at 37° C.: 3A4 for 5 minutes, each of 1A2, 2C9 and 2D6 for 10 minutes, and 2C19 for 45 minutes.
12. ACN containing internal reference was added to stop the reaction, 120 μL per well.
14. […]

Data set [2] can be described thus: Liver microsomal stability in vitro, dog. The class given is in vitro ADME. The note with it: for half-life at 1 μM: pH 7.4, dog liver microsomes 0.5 mg protein/mL, 1 μM test compound, 37° C., read-out: Dog T1/2. The protocol: as §1, §2, §3, §4, §5, §6, §7
4. After preheating, NADPH regeneration system was distributed to 96-well plate, 90 μL per well, for standby according to plate map, which was added to each plate to start the reaction, 10 μL per well. The final concentration of each component in the incubation medium includes: 0.5 mg protein/mL microsome, 1 μM test compound, […], 0.99% methanol and 0.01% DMSO.
6. The above-prepared stop solution (4° C. cooling) was added to stop the reaction, 300 μL per well.
9. During centrifugation, eight new 96-well plates were loaded with 300 μL of HPLC water, and then 100 μL of supernatant was transferred for mixing, followed by LC/MS/MS detection.
as §8

Data set [3] has as its target hERG potassium ion channel (Homo sapiens, UniProt Q12809). The data set is described as follows: hERG potassium ion channel inhibitory activity (Qpatch, CHO-hERG cells). The note with it: for inhibition at 2.5 min, 40 µM: human. The protocol:
CHO-hERG cells were cultured in a 175 cm^2 flask, and when the cell density was increased to 60-80%, the medium was removed and washed with 7 mL of PBS (Phosphate Buffered Saline phosphate buffer), and then digested with 3 mL of Detachin.
The single-cell high impedance sealing and the whole-cell mode formation process were all automatically completed by the Qpatch instrument. After obtaining the whole-cell recording mode, the cells were clamped at −80 mV (millivolt). Before giving a 5-second+40 mV depolarization stimulus, a 50 ms-50 mV pre-voltage was first given, repolarized to −50 mV for 5 seconds, and then returned to −80 mV. This voltage stimulation was applied every 15 seconds. After recording for 2 minutes, extracellular fluid was given for 5 minutes, and then the administration process was started. The compound concentration started from the lowest test concentration, and each test concentration was given for 2.5 minutes. […] At least 3 cells were tested at each concentration (n≥3).
The 20 mM compound mother solution was diluted with extracellular fluid, and 5 μL of 20 mM compound mother solution was added to 2495 μL of extracellular solution, diluted 500-fold to 40 μM, and then sequentially performed 3-fold continuous dilution in an extracellular fluid containing 0.2% DMSO to obtain the final concentration to be tested.
The experimental data were analyzed by XLFit software.
In general terms: The hERG channel carries a current that helps repolarise heart muscle cells.

Sequence of hERG potassium ion channel (Q12809 whole entry): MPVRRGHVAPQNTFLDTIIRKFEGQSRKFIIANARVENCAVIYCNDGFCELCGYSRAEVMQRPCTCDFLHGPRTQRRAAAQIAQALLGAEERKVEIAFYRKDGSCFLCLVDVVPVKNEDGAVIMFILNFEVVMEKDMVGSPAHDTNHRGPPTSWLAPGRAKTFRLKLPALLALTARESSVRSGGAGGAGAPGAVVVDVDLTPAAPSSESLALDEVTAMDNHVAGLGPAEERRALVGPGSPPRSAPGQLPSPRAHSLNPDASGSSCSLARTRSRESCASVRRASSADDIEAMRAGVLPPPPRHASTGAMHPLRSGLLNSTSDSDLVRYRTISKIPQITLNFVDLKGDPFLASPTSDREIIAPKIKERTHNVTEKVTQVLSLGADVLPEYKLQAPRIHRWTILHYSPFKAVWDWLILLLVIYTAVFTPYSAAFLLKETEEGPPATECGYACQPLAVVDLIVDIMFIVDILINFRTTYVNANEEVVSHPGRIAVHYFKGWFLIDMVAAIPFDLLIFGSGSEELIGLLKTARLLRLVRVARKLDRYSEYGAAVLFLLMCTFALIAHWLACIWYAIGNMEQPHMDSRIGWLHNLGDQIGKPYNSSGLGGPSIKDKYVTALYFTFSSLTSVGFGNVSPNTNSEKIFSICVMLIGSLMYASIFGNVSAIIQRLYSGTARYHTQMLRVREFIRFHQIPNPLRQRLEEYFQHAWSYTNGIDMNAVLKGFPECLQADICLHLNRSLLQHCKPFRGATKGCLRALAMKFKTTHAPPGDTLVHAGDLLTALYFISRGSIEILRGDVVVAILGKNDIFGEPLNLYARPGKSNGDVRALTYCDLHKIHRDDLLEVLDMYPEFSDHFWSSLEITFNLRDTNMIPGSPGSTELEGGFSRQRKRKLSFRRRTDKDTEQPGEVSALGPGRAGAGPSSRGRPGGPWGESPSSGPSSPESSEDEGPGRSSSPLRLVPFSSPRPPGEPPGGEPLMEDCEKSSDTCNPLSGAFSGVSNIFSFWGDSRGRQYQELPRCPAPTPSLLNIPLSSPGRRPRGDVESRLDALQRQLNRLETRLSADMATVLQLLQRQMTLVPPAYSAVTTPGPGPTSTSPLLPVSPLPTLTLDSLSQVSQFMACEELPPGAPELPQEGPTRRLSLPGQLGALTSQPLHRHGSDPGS

Take `NC(=O)c1cccc2cn(-c3ccc([C@]4(F)CCCNC4)cc3)nc12` (single isomer, unassigned) [Example 23, (R or S)-2-(4-(3-fluoropiperidin-3-yl)phenyl)-2H-indazole-7-carboxamide]: the figures for the half-life at 1 μM in data set [1] and in data set [2] were 64.2 min and 20.3 min, respectively. The IC50 was more than 10 µM at CYP1A2 and more than 40 µM in data set [3]. In addition, in data set [2] (dog liver microsomes), the “metabolic stability in dog liver microsomes, in words” value was “excellent metabolic stability”. In data set [3], the inhibition at 2.5 min, 40 µM amounted to 29.8%.
For the compound `NC(=O)c1cccc2cn(-c3ccc([C@@H]4CCCNC4)cc3)nc12` [Niraparib, reference compound], the half-life at 1 μM in data set [1] was found to be 106 min; in data set [2], 22.6 min. Moreover, the IC50 on CYP1A2 was more than 10 µM; in data set [3], 39.6 µM. In addition, the inhibition at 2.5 min, 40 µM in data set [3] (CHO cells that express hERG (CHO-hERG)) turned out to be 50.4%.
